Assay results: the supplement of paper PMC9103864

Key:
[1] = tested on: BMSC (primary human bone marrow mesenchymal stromal cells); assay: absolute EC50 for viability; higher = less sensitive
[2] = tested on: BMSC (primary human bone marrow mesenchymal stromal cells); assay: drug sensitivity score (DSS); higher = more sensitive

SMILES	absolute EC50 for viability [1] [µM]	drug sensitivity score [2]
CO[C@H]1C[C@@H]2CC[C@@H](C)[C@@](O)(O2)C(=O)C(=O)N2CCCC[C@H]2C(=O)O[C@H]([C@H](C)C[C@@H]2CC[C@@H](O)[C@H](OC)C2)CC(=O)[C@H](C)/C=C(\C)[C@@H](O)[C@@H](OC)C(=O)[C@H](C)C[C@H](C)/C=C/C=C/C=C/1C [Sirolimus]	> 0.1	4.2
O=C(/C=C/c1cccnc1)NCCCCC1CCN(C(=O)c2ccccc2)CC1 [Daporinad]	> 1	0.2
Clc1ccc(C(c2ccccc2Cl)C(Cl)Cl)cc1 (configuration not stated) [Mitotane]	> 10	0
Cc1cc(Nc2cc(N3CCN(C)CC3)nc(Sc3ccc(NC(=O)C4CC4)cc3)n2)n[nH]1 [Tozasertib]	4.45	4.9
C[C@@H](Oc1ccc2[nH]nc(/C=C/c3cnn(CCO)c3)c2c1)c1c(Cl)cncc1Cl	> 1	3.6
CC(C)c1cc(-c2n[nH]c(=O)n2-c2ccc3c(ccn3C)c2)c(O)cc1O [Ganetespib]	0.0862	10.3
O=C(c1cc(Cc2n[nH]c(=O)c3ccccc23)ccc1F)N1CCN(C(=O)C2CC2)CC1 [Olaparib]	> 10	2.1
C[C@H]1O[C@@H](O[C@H]2[C@@H](O)C[C@H](O[C@H]3[C@@H](O)C[C@H](O[C@H]4CC[C@@]5(C)[C@H](CC[C@@H]6[C@@H]5C[C@@H](O)[C@]5(C)[C@@H](C7=CC(=O)OC7)CC[C@]65O)C4)O[C@@H]3C)O[C@@H]2C)C[C@H](O)[C@@H]1O [Digoxin]	0.0529	13.7
CCCCCCCCCCCCCCCCCCOP(=O)([O-])OC1CC[N+](C)(C)CC1 [Perifosine]	> 2.5	0
Cc1ccc(NC(=O)c2ccc(CN3CCN(C)CC3)cc2)cc1Nc1nccc(-c2cccnc2)n1 [Imatinib]	> 10	5.8
CN1CCc2c(c3ccccc3n2Cc2ccc(C(=O)NO)cc2)C1 [Tubastatin A]	9.93	0
O=C(O)C1(C(=O)O)CCC1.[NH2-].[NH2-].[Pt+2] [Carboplatin]	> 100	2.5
CN1CCN(CCOc2cc(OC3CCOCC3)c3c(Nc4c(Cl)ccc5c4OCO5)ncnc3c2)CC1 [Saracatinib]	> 10	5
O=c1[nH]cc(F)c(=O)[nH]1 [Fluorouracil]	> 10	0.9
C=CCn1c(=O)c2cnc(Nc3ccc(N4CCN(C)CC4)cc3)nc2n1-c1cccc(C(C)(C)O)n1 [AZD1775]	> 10	4.8
COc1cccc2c1c(O)c(C(=O)N(C)c1ccc(C(F)(F)F)cc1)c(=O)n2C [Tasquinimod]	> 10	0.8
Cc1[nH]c2ccccc2c1CCNCc1ccc(/C=C/C(=O)NO)cc1 [Panobinostat]	0.123	10.2
CCCc1cc(C)[nH]c(=O)c1CNC(=O)c1cc(-c2ccnc(N3CCN(C)CC3)c2)cc2c1cnn2C(C)C [GSK343]	> 1	0
CC(=O)O[C@@]12CO[C@@H]1C[C@H](O)[C@@]1(C)C(=O)[C@H](O)C3=C(C)[C@@H](OC(=O)[C@H](O)[C@@H](NC(=O)OC(C)(C)C)c4ccccc4)C[C@@](O)([C@@H](OC(=O)c4ccccc4)[C@H]21)C3(C)C [Docetaxel]	> 1	5
Nc1nc2[nH]cc(CCc3ccc(C(=O)N[C@@H](CCC(=O)O)C(=O)O)cc3)c2c(=O)[nH]1 [Pemetrexed]	> 10	0.7
CCn1c(C(=O)N(C2CC2)C2CC2)cc2c3c(ncn3C)c(Nc3cc(C)n(C)n3)nc21	> 10	1
